Measured values: US10407467B2, “Polymyxin derivatives and their use in combination therapy together with different antibiotics” (priority 2013, dated 2019)
Bridge positions count the residues as written; N and C are the ends. Square brackets hold non-standard residues; d marks the D form. Peptide text beside a SMILES is read from it. * marks the point of attachment. Dab = NCC[C@H](N)C(=O)O; X1 = CCCCCCC(O)C(=O)*

Assays:
[1] = tested on: Acinetobacter baumannii; test: MIC, compound in combination with a second agent (broth microdilution); format: cell-based
How it was run: (§1)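 Broth microdilution with inoculum from 18-24 h Mueller-Hinton agar colonies adjusted to 0.5 McFarland, up to four strains per species. Compound combined 1:1 w/w with second agent (e.g. rifampicin), mass as salt form; MIC is total drug concentration. Duplicates, lower value reported if within 2-fold; modal value for repeat tests.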

[2] = tested on: Escherichia coli; test: as above; format: cell-based
How it was run: as §1

[3] = tested on: Klebsiella pneumoniae; test: as above; format: cell-based
How it was run: as §1

[4] = tested on: Pseudomonas aeruginosa; test: as above; format: cell-based
How it was run: as §1

[5] = tested on: Acinetobacter baumannii; test: MIC, sole activity (no second agent); format: cell-based
How it was run: (§2)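 Compound tested without a second agent in cation-adjusted MHB, up to four strains per species, inoculum at 0.5 McFarland from colonies grown 18-24 h on Mueller-Hinton agar. Run in duplicate, invalid beyond 2-fold disagreement, lower duplicate or modal repeat value given, expressed relative to Polymyxin B.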

[6] = tested on: Escherichia coli; test: MIC, sole activity (no second agent); format: cell-based
How it was run: as §2

[7] = tested on: Klebsiella pneumoniae; test: MIC, sole activity (no second agent); format: cell-based
How it was run: as §2

[8] = tested on: Pseudomonas aeruginosa; test: MIC, sole activity (no second agent); format: cell-based
How it was run: as §2

[9] = tested on: HK-2 cell line; test: In vitro renal cell toxicity assay (resazurin reduction); format: cell-based, human
[10] = tested on: Klebsiella pneumoniae ATCC10031; settings: 10 mg/kg/day, neutropenic mice thigh infection
Protocol: At 1 h, the CFU count was determined from 5 mice and the remaining mice (five per group) were treated with a subcutaneous injection of the drug at +1 and 6 hr post-infection.
Twenty-four hours after infection, the mice were euthanized humanely. The muscle of the right thigh of each animal was harvested, homogenized, serially diluted and plated on Brain Heart Infusion agar+0.5% charcoal (w/v) for CFU determination. Decrease of the total CFU of right thigh as compared to control counts at 24 h post-infection was determined for each dose group.

[11] = rats, 8 mg/kg BID regimen, seven days, compared to Colistin at the same dose regimen
Protocol: After one week acclimatisation, male Sprague-Dawley rats were surgically prepared with a jugular cannula and were housed individually, as required, either in pre-assigned housing cages or metabolic cages. Colistin and the Example Compounds were prepared in saline.
Compounds were introduced via the jugular cannula twice a day 7 hours apart for seven days. Each dose was increased progressively for three days up to the top dose that was then administered until termination of the study. Twenty-four hour urine collection (on ice) was performed at pre-dose and on days 4 and 7. The dose regimen is set out in Table 10 below.
The doses in the table are indicated in mg drug base/kg (free base).
The activity in urine of the N-acetyl-beta-D-glucosaminidase (NAG) was determined spectrophotometrically using the NAG assay kit from Roche Applied Science. Biomarkers of kidney injury were determined using the Kidney Injury Panel II from the Multi-Spot® Assay System (Meso Scale Discovery).

[12] = 1:1 combination with Ciprofloxacin (by row order), total drug concentration
[13] = 1:1 combination with Ciprofloxacin, total drug concentration
[14] = 1:1 combination with Tigecycline, total drug concentration
[15] = 1:1 combination with Vancomycin, total drug concentration
[16] = Second Agent none (Table 7B, by row order)

For CCCCCCC(O)C(=O)N[C@H](C(=O)N[C@@H](CCN)C(=O)N[C@H]1CCNC(=O)[C@H]([C@@H](C)O)NC(=O)[C@H](CCN)NC(=O)[C@H](CCN)NC(=O)[C@H](CC(C)C)NC(=O)[C@@H](Cc2ccccc2)NC(=O)[C@H](CCN)NC1=O)[C@@H](C)O (stereo partly drawn) [Example 1, [2(R,S)-2-Hydroxyoctanoyl] polymyxin B nonapeptide] (X1-T[Dab][Dab][Dab][dF]L[Dab][Dab]T; lactam 3-C), the “MIC A. baumannii CCUG57249” value ([1]; 1:1 (wt:wt) combination with Rifampicin, MIC = total drug concentration, strain CCUG57249) was 0.25 micrograms/mL, the “MIC A. baumannii NCTC 13424” value ([1]; 1:1 (wt:wt) combination with Rifampicin, MIC = total drug concentration, strain NCTC 13424) was 0.25 micrograms/mL and the “MIC A. baumannii NCTC 13424” value [1, 12] was 0.5 micrograms/mL. For the same compound, the “MIC E. coli NCTC9001” value ([2]; 1:1 (wt:wt) combination with Rifampicin, MIC = total drug concentration, strain NCTC9001) was 0.5 micrograms/mL, the “MIC E. coli ATCC25922” value [2, 13] was ≤0.06 micrograms/mL and the “MIC E. coli CCUG 59342” value [2, 13] was 2 micrograms/mL. For the same compound, the “MIC E. coli NCTC9001” value [2, 13] was ≤0.06 micrograms/mL, the “MIC E. coli NCTC9001” value [2, 14] was 4 micrograms/mL and the “MIC E. coli NCTC9001” value [2, 15] was 4 microgram/mL. For the same compound, the “MIC E. coli NCTC9001” value ([2]; E. coli NCTC9001, 1:1 combination with Meropenem, total drug concentration) was 0.25 micrograms/mL, the “MIC K. pneumoniae ATCC 4352” value ([3]; 1:1 (wt:wt) combination with Rifampicin, MIC = total drug concentration, strain ATCC 4352) was 1 micrograms/mL and the “MIC K. pneumoniae ATCC-BAA-2146” value ([3]; 1:1 (wt:wt) combination with Rifampicin, MIC = total drug concentration, strain ATCC-BAA-2146) was 2 micrograms/mL. For the same compound, the “MIC K. pneumoniae CCUG-59348” value ([3]; 1:1 (wt:wt) combination with Rifampicin, MIC = total drug concentration, strain CCUG-59348) was 2 micrograms/mL, the “MIC K. pneumoniae NCTC 13438” value ([3]; 1:1 (wt:wt) combination with Rifampicin, MIC = total drug concentration, strain NCTC 13438) was 1 micrograms/mL and the “MIC K. pneumoniae ATCC 4352” value [3, 12] was ≤0.06 micrograms/mL. The “MIC K. pneumoniae ATCC BAA-1706” value [3, 12] was 0.5 micrograms/mL, the “MIC K. pneumoniae CCUG 59348” value [3, 13] was 32 micrograms/mL and the “MIC K. pneumoniae NCTC 13442” value [3, 13] was 1 micrograms/mL. For the same compound, the “MIC K. pneumoniae CCUG 59348” value [3, 14] was >32 micrograms/mL, the “MIC K. pneumoniae NCTC 13442” value [3, 14] was 16 micrograms/mL and the “MIC K. pneumoniae CCUG 59348” value [3, 15] was >32 microgram/mL. The “MIC K. pneumoniae CCUG 59626” value [3, 15] was 2 microgram/mL, the “MIC K. pneumoniae NCTC 13442” value [3, 15] was 8 microgram/mL and the “MIC K. pneumoniae ATCC BAA-1706” value ([3]; K. pneumoniae ATCC BAA-1706, 1:1 combination with Meropenem, total drug concentration) was 4 micrograms/mL. The “MIC K. pneumoniae CCUG 59348” value ([3]; K. pneumoniae CCUG 59348, 1:1 combination with Meropenem, total drug concentration) was >32 micrograms/mL, the “MIC K. pneumoniae NCTC 13442” value ([3]; K. pneumoniae NCTC 13442, 1:1 combination with Meropenem, total drug concentration) was 8 micrograms/mL and the “MIC P. aeruginosa ATCC 27853” value ([4]; 1:1 (wt:wt) combination with Rifampicin, MIC = total drug concentration, strain ATCC 27853) was 0.5 micrograms/mL. The “MIC P. aeruginosa ATCC-47” value ([4]; 1:1 (wt:wt) combination with Rifampicin, MIC = total drug concentration, strain ATCC-47) was 1 micrograms/mL, the “MIC P. aeruginosa CCUG 59626” value ([4]; 1:1 (wt:wt) combination with Rifampicin, MIC = total drug concentration, strain CCUG 59626) was 1 micrograms/mL and the “MIC P. aeruginosa ATCC 27853” value [4, 12] was 0.125 micrograms/mL. The “MIC P. aeruginosa CCUG 59626” value [4, 12] was 1 micrograms/mL, the “MIC P. aeruginosa CCUG 59626” value [4, 14] was 2 micrograms/mL and the “MIC P. aeruginosa CCUG 59626” value ([4]; P. aeruginosa CCUG 59626, 1:1 combination with Meropenem, total drug concentration) was 2 micrograms/mL. For the same compound, the “MIC A. baumannii NCTC 13424” value [5, 16] was 4 micrograms/mL, the “MIC A. baumannii ATCCBAA-747” value ([5]; in the absence of Rifampicin, strain ATCCBAA-747) was 2 micrograms/mL and the “MIC A. baumannii NCTC 13423” value ([5]; in the absence of Rifampicin, strain NCTC13423) was 1 micrograms/mL. The “MIC E. coli NCTC9001” value ([6]; E. coli NCTC9001, second agent none) was 4 micrograms/mL, the “MIC E. coli NCTC9001” value ([6]; Second Agent none (Table 7A)) was 4 microgram/mL and the “MIC E. coli ATCC25922” value ([6]; Second Agent none (Table 7B)) was 4 micrograms/mL. For the same compound, the “MIC E. coli CCUG 59342” value ([6]; Second Agent none (Table 7B)) was 1 micrograms/mL, the “MIC E. coli NCTC9001” value ([6]; Second Agent none (Table 7B)) was 8 micrograms/mL and the “MIC E. coli NCTC9001” value ([6]; Second Agent none (Table 7C)) was 4 micrograms/mL. For the same compound, the “MIC E. coli ATCC25922” value ([6]; in the absence of Rifampicin, strain ATCC25922) was 2 micrograms/mL, the “MIC E. coli NCTC9001” value ([6]; in the absence of Rifampicin, strain NCTC9001) was 2 micrograms/mL and the “MIC K. pneumoniae ATCC BAA-1706” value ([7]; K. pneumoniae ATCC BAA-1706, second agent none) was 4 micrograms/mL. For the same compound, the “MIC K. pneumoniae CCUG 59348” value ([7]; K. pneumoniae CCUG 59348, second agent none) was >32 micrograms/mL, the “MIC K. pneumoniae NCTC 13442” value ([7]; K. pneumoniae NCTC 13442, second agent none) was 8 micrograms/mL and the “MIC K. pneumoniae CCUG 59348” value ([7]; Second Agent none (Table 7A)) was >32 microgram/mL. For the same compound, the “MIC K. pneumoniae CCUG 59626” value ([7]; Second Agent none (Table 7A)) was 2 microgram/mL, the “MIC K. pneumoniae NCTC 13442” value ([7]; Second Agent none (Table 7A)) was 8 microgram/mL and the “MIC K. pneumoniae CCUG 59348” value ([7]; Second Agent none (Table 7B)) was >32 micrograms/mL. For the same compound, the “MIC K. pneumoniae NCTC 13442” value ([7]; Second Agent none (Table 7B)) was 8 micrograms/mL, the “MIC K. pneumoniae ATCC 4352” value [7, 16] was 1 micrograms/mL and the “MIC K. pneumoniae ATCC BAA-1706” value [7, 16] was 4 micrograms/mL. For the same compound, the “MIC K. pneumoniae CCUG 59348” value ([7]; Second Agent none (Table 7C)) was >32 micrograms/mL, the “MIC K. pneumoniae NCTC 13442” value ([7]; Second Agent none (Table 7C)) was 8 micrograms/mL and the “MIC K. pneumoniae ATCC 4352” value ([7]; in the absence of Rifampicin, strain ATCC 4352) was 1 micrograms/mL. The “MIC K. pneumoniae CCUG-59348” value ([7]; in the absence of Rifampicin, strain CCUG-59348) was >32 micrograms/mL, the “MIC P. aeruginosa CCUG 59626” value ([8]; P. aeruginosa CCUG 59626, second agent none) was 2 micrograms/mL and the “MIC P. aeruginosa ATCC 27853” value [8, 16] was 0.5 micrograms/mL. The “MIC P. aeruginosa CCUG 59626” value [8, 16] was 2 micrograms/mL, the “MIC P. aeruginosa CCUG 59626” value ([8]; Second Agent none (Table 7C)) was 2 micrograms/mL and the “MIC P. aeruginosa ATCC 27853” value ([8]; in the absence of Rifampicin, strain ATCC27853) was 0.5 micrograms/mL. The “MIC P. aeruginosa ATCCCRM-9027” value ([8]; in the absence of Rifampicin, strain ATCCCRM-9027) was 0.25 micrograms/mL, the “MIC P. aeruginosa CCUG 59626” value ([8]; in the absence of Rifampicin, strain CCUG 59626) was 2 micrograms/mL and the “HK-2 toxicity (IC50) compared with PMB” value [9] was “significantly increased recorded IC50 values”. The “reduction in bacterial counts” value [10] was “approx. 2 log10” and the “levels of the renal biomarkers NAG, albumin and cystatin C in urine” value [11] was “significantly reduced levels”.
